The text below walks through data of patent publication US9663530B2, “5-oxa-2-azabicyclo[2.2.2]OCTAN-4-yl and 5-oxa-2-azabicyclo[2.2.1]heptan-4-yl derivatives” (Hoffmann-La Roche Inc., priority 2014, dated 2017).

For one test, the target named is mouse TAAR1 (Mus musculus (Mouse), UniProt Q923Y8). The test is described as follows: Radioligand binding assay on mouse TAAR1. The settings on record: mouse TAAR1 (first value of the cell); membranes of HEK-293 cells stably expressing mouse TAAR1; read-out: Ki (μM) mouse/rat. The method, then:
(§1) Construction of TAAR Expression Plasmids and Stably Transfected Cell Lines
(§2) For the construction of expression plasmids the coding sequences of human, rat and mouse TAAR 1 were amplified from genomic DNA essentially as described by Lindemann et al.. The Expand High Fidelity PCR System (Roche Diagnostics) was used with 1.5 mM Mg^2+ and purified PCR products were cloned into pCR2.1-TOPO cloning vector (Invitrogen) following the instructions of the manufacturer. PCR products were subcloned into the pIRESneo2 vector (BD Clontech, Palo Alto, Calif.), and expression vectors were sequence verified before introduction in cell lines.
(§3) HEK293 cells (ATCC # CRL-1573) were cultured essentially as described by Lindemann et al. (2005). For the generation of stably transfected cell lines HEK293 cells were transfected with the pIRESneo2 expression plasmids containing the TAAR coding sequences (described above) with Lipofectamine 2000 (Invitrogen) according to the instructions of the manufacturer, and 24 hrs post transfection the culture medium was supplemented with 1 mg/ml G418 (Sigma, Buchs, Switzerland). After a culture period of about 10 d clones were isolated, expanded and tested for responsiveness to trace amines (all compounds purchased from Sigma) with the cAMP Biotrak Enzyme immunoassay (EIA) System (Amersham) following the non-acetylation EIA procedure provided by the manufacturer.
Radioligand Binding Assay on Mouse TAAR1
(§4) Membrane Preparation and Radioligand Binding.
HEK-293 cells stably expressing mouse TAAR1 were maintained at 37° C. and 5% CO2 in DMEM high glucose medium, containing fetal calf serum (10%, heat inactivated for 30 min at 56° C.), penicillin/streptomycin (1%), and 375 μg/ml geneticin (Gibco). Cells were released from culture flasks using trypsin/EDTA, harvested, washed twice with ice-cold PBS (without Ca^2+and Mg^2+), pelleted at 1,000 rpm for 5 min at 4° C., frozen and stored at −80° C. Frozen pellets were suspended in 20 ml HEPES-NaOH (20 mM, pH 7.4) containing 10 mM EDTA and homogenized with a Polytron (PT 6000, Kinematica) at 14,000 rpm for 20 s. The homogenate was centrifuged at 48,000×g for 30 min at 4° C. Subsequently, the supernatant was removed and discarded, and the pellet resuspended in 20 ml HEPES-NaOH (20 mM, pH 7.4) containing 0.1 mM EDTA using the Polytron (20 s at 14,000 rpm). This procedure was repeated and the final pellet resuspended in HEPES-NaOH containing 0.1 mM EDTA and homogenized using the Polytron. Typically, aliquots of 2 ml membrane portions were stored at −80° C. With each new membrane batch the dissociation constant (Kd) was determined via a saturation curve. The TAAR1 radioligand ^3[H]-(S)-4-[(ethyl-phenyl-amino)-methyl]-4,5-dihydro-oxazol-2-ylamine (described in WO 2008/098857) was used at a concentration equal to the calculated Kd value, that was usually around 0.7 nM, resulting in the binding of approximately 0.5% of the radioligand and a specific binding representing approximately 70% of the total binding. Nonspecific binding was defined as the amount of ^3[H]-(S)-4-[(ethyl-phenyl-amino)-methyl]-4,5-dihydro-oxazol-2-ylamine bound in the presence of 10 μM unlabeled ligand. All compounds were tested at a broad range of concentrations ([…]) in duplicates. The test compounds (20 […]μl/well) were transferred into a 96 deep well plate (TreffLab), and 180 μl of HEPES-NaOH (20 mM, pH 7.4) containing MgCl2 (10 mM) and CaCl2 (2 mM) (binding buffer), 300 μl of the radioligand ^3[H]-(S)-4-[(ethyl-phenyl-amino)-methyl]-4,5-dihydro-oxazol-2-ylamine at a concentration of 3.3×Kd in nM and 500 μl of the membranes (resuspended at […]) added. The 96 deep well plates were incubated for 1 hr at 4° C. Incubations were terminated by rapid filtration through Unifilter-96 plates (Packard Instrument Company) and glass filters GF/C (Perkin Elmer) presoaked for 1 hr in polyethylenimine (0.3%) and washed 3 times with 1 ml of cold binding buffer. […]

For a further test, the target named is rat TAAR1 (Rattus norvegicus (Rat), UniProt Q923Y9). The test can be described thus: Radioligand binding assay on rat TAAR1. The settings on record: rat TAAR1 (second value of the cell); membranes of HEK-293 cells stably expressing rat TAAR1; read-out: Ki (μM) mouse/rat. The method, then: as §1, §2, §3
Chain of rat TAAR1 (Q923Y9 whole entry): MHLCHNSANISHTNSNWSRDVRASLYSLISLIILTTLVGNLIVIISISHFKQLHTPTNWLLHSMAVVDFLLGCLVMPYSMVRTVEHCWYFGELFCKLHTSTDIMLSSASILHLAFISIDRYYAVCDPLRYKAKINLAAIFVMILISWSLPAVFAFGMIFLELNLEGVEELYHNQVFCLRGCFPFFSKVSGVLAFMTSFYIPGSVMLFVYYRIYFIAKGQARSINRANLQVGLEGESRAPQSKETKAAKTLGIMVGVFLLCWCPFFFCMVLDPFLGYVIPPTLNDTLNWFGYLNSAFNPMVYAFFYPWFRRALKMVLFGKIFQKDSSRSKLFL
Radioligand Binding Assay on Rat TAAR1
as §4
HEK-293 cells stably expressing rat TAAR1 were maintained at 37° C. and 5% CO2 in DMEM high glucose medium, containing fetal calf serum (10%, heat inactivated for 30 min at 56° C.), penicillin/streptomycin (1%), and 375 μg/ml geneticin (Gibco). Cells were released from culture flasks using trypsin/EDTA, harvested, washed twice with ice-cold PBS (without Ca^2+ and Mg^2+), pelleted at 1,000 rpm for 5 min at 4° C., frozen and stored at −80° C. Frozen pellets were suspended in 20 ml HEPES-NaOH (20 mM, pH 7.4) containing 10 mM EDTA and homogenized with a Polytron (PT 6000, Kinematica) at 14,000 rpm for 20 s. The homogenate was centrifuged at 48,000×g for 30 min at 4° C. Subsequently, the supernatant was removed and discarded, and the pellet resuspended in 20 ml HEPES-NaOH (20 mM, pH 7.4) containing 0.1 mM EDTA using the Polytron (20 s at 14,000 rpm). This procedure was repeated and the final pellet resuspended in HEPES-NaOH containing 0.1 mM EDTA and homogenized using the Polytron. Typically, aliquots of 2 ml membrane portions were stored at −80° C. With each new membrane batch the dissociation constant (Kd) was determined via a saturation curve. […] Nonspecific binding was defined as the amount of ^3[H]-(S)-4-[(ethyl-phenyl-amino)-methyl]-4,5-dihydro-oxazol-2-ylamine bound in the presence of 10 μM unlabeled ligand. All compounds were tested at a broad range of concentrations ([…]) in duplicates. The test compounds (20 […]μl/well) were transferred into a 96 deep well plate (TreffLab), and 180 μl of HEPES-NaOH (20 mM, pH 7.4) containing MgCl2 (10 mM) and CaCl2 (2 mM) (binding buffer), 300 μl of the radioligand ^3[H]-(S)-4-[(ethyl-phenyl-amino)-methyl]-4,5-dihydro-oxazol-2-ylamine at a concentration of 3.3×Kd in nM and 500 μl of the membranes (resuspended at 50 μg protein per ml) added. The 96 deep well plates were incubated for 1 hr at 4° C. Incubations were terminated by rapid filtration through Unifilter-96 plates (Packard Instrument Company) and glass filters GF/C (Perkin Elmer) presoaked for 1 hr in polyethylenimine (0.3%) and washed 3 times with 1 ml of cold binding buffer. After addition of 45 μl of Microscint 40 (PerkinElmer) the Unifilter-96 plate was sealed and after 1 hr the ratioactivity counted using a TopCount Microplate Scintillation Counter (Packard Instrument Company).

Chain of mouse TAAR1 (Q923Y8 whole entry): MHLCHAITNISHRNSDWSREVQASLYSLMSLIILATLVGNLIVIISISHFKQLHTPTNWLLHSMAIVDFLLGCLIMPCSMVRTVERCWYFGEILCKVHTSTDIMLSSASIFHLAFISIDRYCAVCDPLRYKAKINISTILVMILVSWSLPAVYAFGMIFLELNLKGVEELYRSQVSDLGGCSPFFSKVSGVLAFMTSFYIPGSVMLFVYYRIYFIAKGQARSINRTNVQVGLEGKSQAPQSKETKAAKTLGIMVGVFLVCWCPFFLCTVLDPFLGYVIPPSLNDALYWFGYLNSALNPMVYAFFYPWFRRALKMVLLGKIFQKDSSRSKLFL

As to `CCc1ncc(C(=O)Nc2ccc(C[C@@]34CN[C@@H](CO3)C4)cc2)cn1` [Example 50, 2-Ethyl-N-[4-[[(1R,4R)-5-oxa-2-azabicyclo[2.2.1]heptan-4-yl]methyl]phenyl]pyrimidine-5-carboxamide], the figures for the Ki at mouse TAAR1 and at rat TAAR1 were 0.226 µM and 1.24 µM, respectively.
Consider `CCOc1ccc(C(=O)Nc2ccc(C34CCC(CO3)NC4)cc2)cn1` (racemic) [Example 12, (RS)-6-Ethoxy-N-[4-(5-oxa-2-azabicyclo[2.2.2]octan-4-yl)phenyl]pyridine-3-carboxamide], for which the Ki at mouse TAAR1 turned out to be 0.0219 µM; at rat TAAR1 it was 7.06 µM.
For `O=C(Nc1ccc(C[C@@]23CN[C@@H](CO2)C3)cc1)Nc1ccccc1Cl` [Example 43, 1-(2-Chlorophenyl)-3-[4-[[(1R,4R)-5-oxa-2-azabicyclo[2.2.1]heptan-4-yl]methyl]phenyl]urea], in that order: 0.0124 µM and 0.202 µM.
The matching figures for `O=C(Nc1ccc(C[C@]23CN[C@H](CO2)C3)cc1)Nc1cccc(C(F)(F)F)c1` [Example 10, 1-[4-[[(1S,4S)-5-Oxa-2-azabicyclo[2.2.1]heptan-4-yl]methyl]phenyl]-3-[3-(trifluoromethyl)phenyl]urea]: 0.365 µM and 0.0209 µM.
For `CCOc1ccc(C(=O)Nc2ccc(C[C@]34CN[C@H](CO3)C4)cc2)cc1` [Example 19, 4-Ethoxy-N-[4-[[(1 S,4S)-5-oxa-2-azabicyclo[2.2.1]heptan-4-yl]methyl]phenyl]benzamide], in that order: 0.334 µM and 0.063 µM.
As for `O=C(Nc1ccc([C@@]23CN[C@@H](CO2)C3)cc1)c1ccc(Cl)cc1` [Example 54, 4-Chloro-N-[4-[(1R,4S)-5-oxa-2-azabicyclo[2.2.1]heptan-4-yl]phenyl]benzamide], the figures for the Ki on mouse TAAR1 and at rat TAAR1 were 0.0054 µM and 0.97 µM, respectively.
For `O=C(Nc1ccc(C23CCC(CO2)NC3)cc1)c1cnc(C2CC2)nc1` (racemic) [Example 14, (RS)-2-Cyclopropyl-N-[4-(5-oxa-2-azabicyclo[2.2.2]octan-4-yl)phenyl]pyrimidine-5-carboxamide], in that order: 0.136 µM and > 10 µM.
For `O=C(Nc1ccc(Cl)cc1)Nc1ccc(C[C@]23CN[C@H](CO2)C3)cc1` [Example 1, 1-(4-Chlorophenyl)-3-[4-[[(1S,4S)-5-oxa-2-azabicyclo[2.2.1]heptan-4-yl]methyl]phenyl]urea], in that order: 1.82 µM and 1150 µM.
`O=C(Nc1ccc(C[C@@]23CN[C@@H](CO2)C3)cc1)Nc1cccc(C(F)(F)F)c1` [Example 44, 1-[4-[[(1R,4R)-5-Oxa-2-azabicyclo[2.2.1]heptan-4-yl]methyl]phenyl]-3-[3-(trifluoromethyl)phenyl]urea]: the Ki on mouse TAAR1 is 0.0046 µM; on rat TAAR1 it was 0.0108 µM.
For `CCCc1n[nH]c(C(=O)Nc2ccc(C[C@@]34CN[C@@H](CO3)C4)cc2)c1Cl` [Example 41, 4-Chloro-N-[4-[[(1R,4R)-5-oxa-2-azabicyclo[2.2.1]heptan-4-yl]methyl]phenyl]-3-propyl-1H-pyrazole-5-carboxamide], in that order: 0.0183 µM and 0.066 µM.
For `FC(F)(F)c1cnc(Nc2ccc(C[C@]34CN[C@H](CO3)C4)cc2)cn1` [Example 32, N-[4-[[(1S,4S)-5-Oxa-2-azabicyclo[2.2.1]heptan-4-yl]methyl]phenyl]-5-(trifluoromethyl)pyrazin-2-amine], the figures for the Ki on mouse TAAR1 and at rat TAAR1 were > 10 µM and 0.854 µM, respectively.
With `CCOc1ccc(C(=O)Nc2ccc(C[C@]34CN[C@H](CO3)C4)cc2)cn1` [Example 26, 6-Ethoxy-N-[4-[[(1S,4S)-5-oxa-2-azabicyclo[2.2.1]heptan-4-yl]methyl]phenyl]pyridine-3-carboxamide], the Ki on mouse TAAR1 was 1.14 µM; on rat TAAR1 it was 0.441 µM.
As to `CCCc1n[nH]c(C(=O)Nc2ccc(C[C@]34CN[C@H](CO3)C4)cc2)c1Cl` [Example 16, 4-Chloro-N-[4-[[(1 S,4S)-5-oxa-2-azabicyclo[2.2.1]heptan-4-yl]methyl]phenyl]-3-propyl-1H-pyrazole-5-carboxamide], the Ki was 0.476 µM at mouse TAAR1 and 0.277 µM on rat TAAR1.
As to `O=C(Nc1ccc(C[C@@]23CN[C@@H](CO2)C3)cc1)c1ccc(OCC2CC2)cc1` [Example 45, 4-(Cyclopropylmethoxy)-N-[4-[[(1R,4R)-5-oxa-2-azabicyclo[2.2.1]heptan-4-yl]methyl]phenyl]benzamide], the Ki at mouse TAAR1 stood at 0.0061 µM; on rat TAAR1 it was 0.0212 µM.
The matching figures for `O=C(Nc1ccc(C[C@@]23CN[C@@H](CO2)C3)cc1)c1[nH]nc(C2CC2)c1Cl` [Example 48, 4-Chloro-3-cyclopropyl-N-[4-[[(1R,4R)-5-oxa-2-azabicyclo[2.2.1]heptan-4-yl]methyl]phenyl]-1H-pyrazole-5-carboxamide]: 0.0147 µM and 0.112 µM.
As to `O=C(Nc1ccc([C@]23CN[C@H](CO2)C3)cc1)c1ccnc(C(F)(F)F)c1` [Example 60, N-[4-[(1S,4R)-5-Oxa-2-azabicyclo[2.2.1]heptan-4-yl]phenyl]-2-(trifluoromethyl)pyridine-4-carboxamide], the Ki worked out at 0.0512 µM at mouse TAAR1 and 0.273 µM at rat TAAR1.
The matching figures for `O=C(Nc1ccc(C23CCC(CO2)NC3)cc1)c1ccc(OCC2CC2)cc1` (racemic) [Example 11, (RS)-4-(Cyclopropylmethoxy)-N-[4-(5-oxa-2-azabicyclo[2.2.2]octan-4-yl)phenyl]benzamide]: 0.019 µM and 1.22 µM.
